Laboratory results reported in ChEMBL document CHEMBL1201862, “PubChem BioAssay data set” (2004).
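Where inhibition never reached the appropriate level, the endpoint shown equals the highest concentration tested. Otherwise, values were interpolated linearly from a five-concentration, 48-hour dose response in 96-well plates. Abbreviation: GI50, concentration required for 50% inhibition of growth.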 Calls of active or inactive are those of the source. Rule as the data show it: active = GI50 up to about 1.1 µM and inactive = higher.

Key:
Assay in all cases: NCI tumour cell line growth inhibition, 48 h
ACHN = system: ACHN
Hs-578T = system: Hs-578T
MOLT-4 = system: MOLT-4
HOP-92 = system: HOP-92
SK-MEL-2 = system: SK-MEL-2
MDA-N = system: MDA-N
OVCAR-4 = system: OVCAR-4
KM12 = system: KM12
SNB-19 = system: SNB-19
SF-295 = system: SF-295
MCF7 = system: MCF7
TK-10 = system: TK-10
IGROV-1 = system: IGROV-1
PC-3 = system: PC-3
A549 = system: A549
OVCAR-3 = system: OVCAR-3
K562 = system: K562
NCI-H23 = system: NCI-H23
HOP-62 = system: HOP-62
RXF 393 = system: RXF 393

SMILES	GI50 (ACHN)	GI50 (Hs-578T)	GI50 (MOLT-4)	GI50 (HOP-92)	GI50 (SK-MEL-2)	GI50 (MDA-N)	GI50 (OVCAR-4)	GI50 (KM12)	GI50 (SNB-19)	GI50 (SF-295)	GI50 (MCF7)	GI50 (TK-10)	GI50 (IGROV-1)	GI50 (PC-3)	GI50 (A549)	GI50 (OVCAR-3)	GI50 (K562)	GI50 (NCI-H23)	GI50 (HOP-62)	GI50 (RXF 393)
O=c1nc(N2CCN(c3ccccc3)CC2)ccn1C1OC(CO)C(O)C1O (stereo not given)	> 100 µM (inactive)	> 100 µM (inactive)	49.7 µM (inactive)	24.2 µM (inactive)	> 100 µM (inactive)	56.8 µM (inactive)	27.1 µM (inactive)	38.1 µM (inactive)	> 100 µM (inactive)	61.5 µM (inactive)	54.6 µM (inactive)	> 100 µM (inactive)	60.5 µM (inactive)	74.5 µM (inactive)	> 100 µM (inactive)	56.4 µM (inactive)	29.4 µM (inactive)	55.3 µM (inactive)	> 100 µM (inactive)	> 100 µM (inactive)
O=c1c(F)cn(Cc2c(Cl)cccc2Cl)c(=O)n1Cc1c(Cl)cccc1Cl	> 31.6 µM (inactive)	> 31.6 µM (inactive)	25.6 µM (inactive)	20.3 µM (inactive)	> 31.6 µM (inactive)	> 31.6 µM (inactive)	17.1 µM (inactive)	> 31.6 µM (inactive)	> 100 µM (inactive)	> 31.6 µM (inactive)	24.5 µM (inactive)	> 31.6 µM (inactive)	> 31.6 µM (inactive)	17.3 µM (inactive)	> 31.6 µM (inactive)	> 31.6 µM (inactive)	26.9 µM (inactive)	27.7 µM (inactive)	> 31.6 µM (inactive)	19.7 µM (inactive)
C1CSC2=C(S1)SC1=C(S2)SC(=C2SC3=C(SC4=C(SCCS4)S3)S2)S1	> 100 µM (inactive)	> 100 µM (inactive)	> 100 µM (inactive)	> 100 µM (inactive)	74.1 µM (inactive)	> 100 µM (inactive)	> 100 µM (inactive)	> 100 µM (inactive)	> 100 µM (inactive)	> 100 µM (inactive)	> 100 µM (inactive)	> 100 µM (inactive)	> 100 µM (inactive)	> 100 µM (inactive)	> 100 µM (inactive)	> 100 µM (inactive)	> 100 µM (inactive)	> 100 µM (inactive)	> 100 µM (inactive)	> 100 µM (inactive)
C[C@]1(O)CC(=O)c2c(c(-c3ccc4cc5c(c(O)c4c3O)C(=O)C[C@@](C)(O)C5)c3cccc(O)c3c2O)C1	4.04 µM (inactive)	4.06 µM (inactive)	9.44 µM (inactive)	2.58 µM (inactive)	2.52 µM (inactive)	4.56 µM (inactive)	7 µM (inactive)	3.31 µM (inactive)	6.52 µM (inactive)	4.86 µM (inactive)	5.53 µM (inactive)	6.82 µM (inactive)	4.67 µM (inactive)	3.08 µM (inactive)	4.24 µM (inactive)	3.71 µM (inactive)	11.9 µM (inactive)	3.69 µM (inactive)	3.48 µM (inactive)	4.58 µM (inactive)
CN(C)CCNCc1ccc2c(-c3ccccc3)nc3cc(Cl)c(Cl)cc3n12	7.6 µM (inactive)	17.9 µM (inactive)	8.53 µM (inactive)	13.1 µM (inactive)	9.57 µM (inactive)	9.48 µM (inactive)	11.3 µM (inactive)	9.73 µM (inactive)	14 µM (inactive)	13.1 µM (inactive)	6.19 µM (inactive)	10.9 µM (inactive)	7.59 µM (inactive)	10.9 µM (inactive)	10.1 µM (inactive)	17.5 µM (inactive)	8.32 µM (inactive)	14.6 µM (inactive)	7.33 µM (inactive)	4.98 µM (inactive)
O=C(Cc1ccc(Cl)c(Cl)c1)NCC1(N2CCCCC2)CCCCC1	> 100 µM (inactive)	52.2 µM (inactive)	35.5 µM (inactive)	78.7 µM (inactive)	46.1 µM (inactive)	37 µM (inactive)	64 µM (inactive)	50.7 µM (inactive)	> 100 µM (inactive)	37.3 µM (inactive)	43.6 µM (inactive)	28.8 µM (inactive)	> 100 µM (inactive)	40.1 µM (inactive)	41.4 µM (inactive)	86.5 µM (inactive)	50.1 µM (inactive)	57.7 µM (inactive)	> 100 µM (inactive)	21.6 µM (inactive)
O=C(CC(=O)Nc1ccccc1)NNC(c1cc(/N=N/c2ccc(Br)cc2)ccc1O)P(O)O (stereo not given)	2.12 µM (inactive)	> 10 µM (inactive)	0.321 µM (active)	4.18 µM (inactive)	> 10 µM (inactive)	3.83 µM (inactive)	1.85 µM (inactive)	1.81 µM (inactive)	> 10 µM (inactive)	3.64 µM (inactive)	1.03 µM (active)	0.851 µM (active)	9.62 µM (inactive)	0.975 µM (active)	6.41 µM (inactive)	0.333 µM (active)	2.06 µM (inactive)	3.28 µM (inactive)	6.79 µM (inactive)	> 10 µM (inactive)
Cc1c/c(=N\c2ccc3c(c2)c(N)cc(C)[n+]3C)nc(N)n1C	> 100 µM (inactive)	> 100 µM (inactive)	> 100 µM (inactive)	> 100 µM (inactive)	> 100 µM (inactive)	> 100 µM (inactive)	> 100 µM (inactive)	> 100 µM (inactive)	> 100 µM (inactive)	> 100 µM (inactive)	> 100 µM (inactive)	> 100 µM (inactive)	> 100 µM (inactive)	> 100 µM (inactive)	> 100 µM (inactive)	> 100 µM (inactive)	> 100 µM (inactive)	> 100 µM (inactive)	87.7 µM (inactive)	> 100 µM (inactive)
O=C(Oc1ccccn1)c1cc2cc(CCl)ccc2oc1=O	43.8 µM (inactive)	21.7 µM (inactive)	31.2 µM (inactive)	20.7 µM (inactive)	25.9 µM (inactive)	43.5 µM (inactive)	23 µM (inactive)	66.8 µM (inactive)	27 µM (inactive)	68.1 µM (inactive)	38.5 µM (inactive)	72.1 µM (inactive)	> 100 µM (inactive)	18.5 µM (inactive)	> 100 µM (inactive)	19.4 µM (inactive)	32.7 µM (inactive)	21.6 µM (inactive)	23.7 µM (inactive)	19 µM (inactive)
COc1ccc(OC)c2nc3c(C(=O)NCCN(C)C)cccc3nc12	1.98 µM (inactive)	5.89 µM (inactive)	2.8 µM (inactive)	4.18 µM (inactive)	8.45 µM (inactive)	4.52 µM (inactive)	3.09 µM (inactive)	4.2 µM (inactive)	6.76 µM (inactive)	3.99 µM (inactive)	3.48 µM (inactive)	4.63 µM (inactive)	4.59 µM (inactive)	4.04 µM (inactive)	3.37 µM (inactive)	4.93 µM (inactive)	3 µM (inactive)	3.7 µM (inactive)	4.55 µM (inactive)	5.85 µM (inactive)
Cc1cc(N(CCC#N)CCC#N)ccc1/C=C(\NC(=O)/C=C/c1ccccc1)C(=O)NN	> 80.9 µM (inactive)	31.3 µM (inactive)	> 100 µM (inactive)	20.3 µM (inactive)	> 61.7 µM (inactive)	> 100 µM (inactive)	> 100 µM (inactive)	> 100 µM (inactive)	> 40.9 µM (inactive)	40 µM (inactive)	95.1 µM (inactive)	> 51.3 µM (inactive)	> 75.3 µM (inactive)	> 100 µM (inactive)	> 100 µM (inactive)	> 100 µM (inactive)	> 100 µM (inactive)	> 65.8 µM (inactive)	37.1 µM (inactive)	> 57.3 µM (inactive)
COC(=O)/C(=C\c1ccco1)P(=O)(OC)OC	29.4 µM (inactive)	54.1 µM (inactive)	> 100 µM (inactive)	25.2 µM (inactive)	30.9 µM (inactive)	56.1 µM (inactive)	17.8 µM (inactive)	> 100 µM (inactive)	65.2 µM (inactive)	20 µM (inactive)	17.4 µM (inactive)	> 100 µM (inactive)	> 100 µM (inactive)	73.5 µM (inactive)	85.1 µM (inactive)	26.9 µM (inactive)	> 100 µM (inactive)	30.5 µM (inactive)	25.4 µM (inactive)	24.4 µM (inactive)
NNS(=O)(=O)c1cc(C(=O)O)cc(C(=O)O)c1	> 100 µM (inactive)	1.09 µM (active)	> 100 µM (inactive)	> 100 µM (inactive)	> 100 µM (inactive)	> 100 µM (inactive)	> 100 µM (inactive)	> 100 µM (inactive)	> 100 µM (inactive)	> 100 µM (inactive)	> 100 µM (inactive)	> 100 µM (inactive)	> 100 µM (inactive)	> 100 µM (inactive)	> 100 µM (inactive)	> 100 µM (inactive)	> 100 µM (inactive)	> 100 µM (inactive)	> 100 µM (inactive)	> 100 µM (inactive)
COc1ccc2oc(S(=O)(=O)N3CC(CCl)c4ccc([N+](=O)[O-])cc43)cc2c1 (stereo not given)	0.179 µM (active)	0.0454 µM (active)	0.223 µM (active)	0.533 µM (active)	0.12 µM (active)	0.0301 µM (active)	6.28 µM (inactive)	0.0465 µM (active)	0.233 µM (active)	0.0374 µM (active)	0.0401 µM (active)	15.1 µM (inactive)	0.0815 µM (active)	0.116 µM (active)	0.274 µM (active)	0.108 µM (active)	0.0366 µM (active)	0.36 µM (active)	0.0381 µM (active)	0.0345 µM (active)
